Test results from patent US9127027B2, “Epoxyeicosatrienoic acid analogs and methods of making and using the same” (The Medical College of Wisconsin, Inc., priority 2011, dated 2015).

Tests used:
Human recombinant sEH = Human recombinant sEH (Homo sapiens (Human), UniProt P34913); assay: Soluble epoxide hydrolase inhibition (PHOME fluorescent substrate); format: biochemical; conditions: Table 1 head prints μM (Table 2 prints nM for same numbers); read-out: sEHi IC50
Method: Compounds were tested for their ability to inhibit recombinant soluble epoxide hydrolase (sEH) protein. The assay utilizes (3-Phhenyl-oxiranyl)-acetic acid cyano-(6-methoxy-naphthalen-2-yl)-methyl ester (PHOME), a sensitive substrate for sEH that can be used to monitor the activity of both human and murine enzymes. […] Human recombinant sEH was incubated with substrate and compounds ranging in concentration from 0.1 to 1000 nM.

bovine coronary artery = assay: Vasorelaxant activity in bovine coronary artery rings precontracted with U-46619; format: cell-based; conditions: Bos taurus
Method: Vasorelaxant activity was measured in bovine coronary artery. Bovine hearts were obtained and the left anterior descending coronary artery was dissected and cleaned of connective tissue. Vessels of 1 mm diameter were cut into rings of 3 mm width as previously described (3, 27, 39). […] The vessels were suspended from a pair of stainless steel hooks in a 6-ml water-jacketed organ chamber. […] One hook was anchored to a steel rod and the other hook to a force transducer (model FT-03C; Grass Instruments, West Warwick, R.I.). Tension of the vessel was measured by an ETH-400 bridge amplifier, and the data were acquired with a MacLab 8e analog-to-digital converter and MacLab software version 3.5.6 (AD Instruments, Milford, Mass.) and stored on a Macintosh computer for subsequent data analysis.
Basal tension was set at the length-tension maximum of 3.5 g and equilibrated for 1.5 h. KCl (40 mM) was added to the chamber until reproducible maximal contractions were maintained. […] Cumulative additions of compounds were added to the chamber. Between concentration-response curves, the chambers were rinsed with fresh Krebs buffer, 40 mM KCl was administered to determine the maximum contraction, and the vessels were rinsed. Consecutive concentration-response curves were performed with 14,15-EET followed by a concentration-response curve to a compound. The experiment was always repeated with the order of the agonists reversed. […] The relaxation was plotted versus compound concentration and the EC50 determined utilizing statistical software.

Human recombinant sEH, sequence (P34913 whole entry): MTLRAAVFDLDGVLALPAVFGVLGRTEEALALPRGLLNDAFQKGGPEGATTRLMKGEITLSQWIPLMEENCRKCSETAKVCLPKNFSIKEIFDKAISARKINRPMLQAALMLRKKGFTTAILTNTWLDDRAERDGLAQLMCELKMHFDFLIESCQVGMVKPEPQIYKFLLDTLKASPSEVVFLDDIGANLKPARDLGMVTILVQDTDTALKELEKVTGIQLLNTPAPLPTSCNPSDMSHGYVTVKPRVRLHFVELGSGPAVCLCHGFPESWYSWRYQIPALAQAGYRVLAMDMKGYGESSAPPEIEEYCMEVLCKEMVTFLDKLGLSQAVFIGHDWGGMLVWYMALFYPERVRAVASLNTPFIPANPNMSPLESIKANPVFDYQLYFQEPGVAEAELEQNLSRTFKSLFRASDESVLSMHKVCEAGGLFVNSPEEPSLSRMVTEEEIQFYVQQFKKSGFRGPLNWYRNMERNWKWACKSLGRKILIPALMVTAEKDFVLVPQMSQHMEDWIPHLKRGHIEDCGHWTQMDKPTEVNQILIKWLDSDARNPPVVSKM

IC50 (Human recombinant sEH): 0.282 µM
melting point: 113.7 to 113.8 °C
EC50 (bovine coronary artery; bovine coronary artery, read-out: Vascular Relax. EC50): 3.3 µM
Compound: CCCCCNC(=O)NCCCC/C=C\CCOc1cccc2sc(NC(C)=O)nc12 [Compound 33, N-(4-(8-(3-n-Pentylureido)oct-3(Z)-enyloxy)benzo[d]thiazol-2-yl)acetamide]
activation at 10 µM (bovine coronary artery; 10 μM, 100% relaxation = basal pre-U-46619 tension, read-out: Vascular Relax. % (10 μM)): 73%
